From EPA's CvTdb concentration-time database

Assays:
Rat [1] = assay: concentration in plasma after dosing; conditions: 3 h; dosed: Fluorotelomer alcohol 8+2; 12 mg/kg; iv; Male; F344
Rat [2] = assay: concentration in brain after dosing; conditions: 1 h; dosed: Fluorotelomer alcohol 8+2; 24 mg/kg; oral; Male; Harlan Sprague Dawley
Rat [3] = assay: concentration in kidney after dosing; conditions: 3 h; dosed: Fluorotelomer alcohol 8+2; 24 mg/kg; oral; Male; Harlan Sprague Dawley
Rat [4] = assay: concentration in liver after dosing; conditions: 0.5 h; dosed: Fluorotelomer alcohol 8+2; 80 mg/kg; oral; Female; Harlan Sprague Dawley
Rat [5] = assay: concentration in plasma after dosing; conditions: 6 h; dosed: Primidone; 30 mg/kg; oral; Male; F344
Rat [6] = assay: concentration in plasma after dosing; conditions: 18 h; dosed: Primidone; 80 mg/kg; oral; Male; F344
Rat [7] = assay: concentration in plasma after dosing; conditions: 22 h; dosed: Primidone; 30 mg/kg; oral; Female; F344
Rat [8] = assay: concentration in plasma after dosing; conditions: 22 h; dosed: Primidone; 130 mg/kg; oral; Male; F344
Rat [9] = assay: concentration in plasma after dosing; conditions: 18 h; dosed: Primidone; 80 mg/kg; oral; Female; F344
Rat [10] = assay: concentration in plasma after dosing; conditions: dosed: Perfluorodecanoic acid, 2 mg/kg, oral, Male, Harlan Sprague Dawley
Rat [11] = assay: concentration in plasma after dosing; conditions: dosed: Perfluorodecanoic acid, 2 mg/kg, iv, Male, F344
Rat [12] = assay: concentration in kidney after dosing; conditions: 3360 h; dosed: Perfluorodecanoic acid; 10 mg/kg; oral; Female; Harlan Sprague Dawley
Rat [13] = assay: concentration in plasma after dosing; conditions: 2 h; dosed: Bis 2-Chloroethoxy Methane; 20 mg/kg; iv; Male; F344
Rat [14] = assay: concentration in heart after dosing; conditions: 1 h; dosed: Bis 2-Chloroethoxy Methane; 20 mg/kg; iv; Male; F344
Rat [15] = assay: concentration in plasma after dosing; conditions: 20 min; dosed: Bis 2-Chloroethoxy Methane; 20 mg/kg; iv; Male; F344
Rat [16] = assay: concentration in thymus after dosing; conditions: 5 h; dosed: Bis 2-Chloroethoxy Methane; 20 mg/kg; iv; Male; F344
Rat [17] = assay: concentration in heart after dosing; conditions: 1 h; dosed: Bis 2-Chloroethoxy Methane; 20 mg/kg; iv; Female; F344
Rat [18] = assay: concentration in plasma after dosing; conditions: 5 h; dosed: Bis 2-Chloroethoxy Methane; 20 mg/kg; iv; Male; F344
Rat [19] = assay: concentration in plasma after dosing; conditions: dosed: dichloroacetic acid, 40 mg/kg, oral, Female, Harlan Sprague Dawley
Rat [20] = assay: concentration in plasma after dosing; conditions: dosed: dichloroacetic acid, 40 mg/kg, oral, Female, Harlan Sprague Dawley; remark: listed apart in the source
Rat [21] = assay: concentration in plasma after dosing; conditions: dosed: Wyeth-14643, 2.0 mg/kg, iv, Male, Sprague-Dawley
Rat [22] = assay: concentration in heart after dosing; conditions: 40 min; dosed: Thiodiglycolic Acid; 20 mg/kg; iv; Female; Harlan Sprague Dawley
Rat [23] = assay: concentration in liver after dosing; conditions: 5.333 h; dosed: Thiodiglycolic Acid; 20 mg/kg; iv; Female; Harlan Sprague Dawley
Rat [24] = assay: concentration in heart after dosing; conditions: 10 h; dosed: Thiodiglycolic Acid; 20 mg/kg; iv; Male; F344
Rat [25] = assay: concentration in liver after dosing; conditions: 3 h; dosed: Thiodiglycolic Acid; 20 mg/kg; iv; Female; Harlan Sprague Dawley
Rat [26] = assay: concentration in heart after dosing; conditions: 8 h; dosed: Thiodiglycolic Acid; 20 mg/kg; iv; Female; Harlan Sprague Dawley
Rat [27] = assay: concentration in heart after dosing; conditions: 6.667 h; dosed: Thiodiglycolic Acid; 20 mg/kg; iv; Female; Harlan Sprague Dawley
Rat [28] = assay: concentration in thymus after dosing; conditions: 10 min; dosed: Thiodiglycolic Acid; 20 mg/kg; iv; Female; Harlan Sprague Dawley
Rat [29] = assay: concentration in heart after dosing; conditions: 2 h; dosed: Thiodiglycolic Acid; 20 mg/kg; iv; Female; Harlan Sprague Dawley
Rat [30] = assay: concentration in liver after dosing; conditions: 10 min; dosed: Thiodiglycolic Acid; 20 mg/kg; iv; Female; Harlan Sprague Dawley
Rat [31] = assay: concentration in liver after dosing; conditions: 8 h; dosed: Thiodiglycolic Acid; 20 mg/kg; iv; Female; Harlan Sprague Dawley
Rat [32] = assay: concentration in plasma after dosing; conditions: 10 min; dosed: Thiodiglycolic Acid; 20 mg/kg; iv; Female; Harlan Sprague Dawley
Rat [33] = assay: concentration in plasma after dosing; conditions: 20 min; dosed: Thiodiglycolic Acid; 20 mg/kg; iv; Female; F344
Rat [34] = assay: concentration in plasma after dosing; conditions: 4 h; dosed: Di-n-butyl phthalate; 100 mg/kg; oral; Male; Sprague-Dawley
Rat [35] = assay: concentration in plasma after dosing; conditions: 20 min; dosed: Di-n-butyl phthalate; 20 mg/kg; iv; Male; Sprague-Dawley
Rat [36] = assay: concentration in plasma after dosing; conditions: 3 h; dosed: Di-n-butyl phthalate; 50 mg/kg; oral; Male; Sprague-Dawley
Rat [37] = assay: concentration in plasma after dosing; conditions: 5 h; dosed: Di-n-butyl phthalate; 20 mg/kg; iv; Male; Sprague-Dawley
Rat [38] = assay: concentration in plasma after dosing; conditions: 2 h; dosed: Di-n-butyl phthalate; 50 mg/kg; oral; Male; Sprague-Dawley
Rat [39] = assay: concentration in plasma after dosing; conditions: 0.25 h; dosed: Di-n-butyl phthalate; 100 mg/kg; oral; Male; Sprague-Dawley

Question: Which results are given for `OCCC(F)(F)C(F)(F)C(F)(F)C(F)(F)C(F)(F)C(F)(F)C(F)(F)C(F)(F)F` [Fluorotelomer alcohol 8+2]?
Answer: concentration in plasma (Rat [1]): 106 ng/mL; concentration in brain (Rat [2]): 2520 ng/g; concentration in kidney (Rat [3]): 985 ng/g; concentration in liver (Rat [4]): 15900 ng/g

Question: `CCC1(c2ccccc2)C(=O)NC(=O)NC1=O` [Phenobarbital] was tested. Which concentration in plasma (Rat [5]) did it give?
Answer: 3110 ng/mL

Question: And the concentration in plasma (Rat [6])?
Answer: 3110 ng/mL

Question: And the concentration in plasma (Rat [7])?
Answer: 720 ng/mL

Question: What about the concentration in plasma (Rat [8]) of the same compound?
Answer: 4990 ng/mL

Question: And the concentration in plasma (Rat [9])?
Answer: 1900 ng/mL

Question: What does the source list for `O=C(O)C(F)(F)C(F)(F)C(F)(F)C(F)(F)C(F)(F)C(F)(F)C(F)(F)C(F)(F)C(F)(F)F` [Perfluorodecanoic acid]?
Answer: concentration in plasma (Rat [10]; 1 h): 4030 ng/mL; concentration in plasma (Rat [10]; 192 h): 4670 ng/mL; concentration in plasma (Rat [10]; 2520 h): 645 ng/mL; concentration in plasma (Rat [11]; 6 h): 6490 ng/mL; concentration in plasma (Rat [11]; 864 h): 2790 ng/mL; concentration in kidney (Rat [12]): 2910 ng/g

Question: `ClCCOCOCCCl` [Bis 2-Chloroethoxy Methane] was tested. Which concentration in plasma (Rat [13]) did it give?
Answer: 282 ng/mL

Question: And the concentration in heart (Rat [14])?
Answer: 2450 ng/g

Question: What about the concentration in plasma (Rat [15]) of the same compound?
Answer: 5580 ng/mL

Question: And the concentration in thymus (Rat [16])?
Answer: 78.9 ng/g

Question: And the concentration in heart (Rat [17])?
Answer: 1380 ng/g

Question: And the concentration in plasma (Rat [18])?
Answer: 31 ng/mL

Question: `O=C(O)C(Cl)Cl` [dichloroacetic acid] was tested. Which concentration in plasma (Rat [19]; 5 min) did it give?
Answer: 4330 ng/mL

Question: What about the concentration in plasma (Rat [19]; 1.25 h) of the same compound?
Answer: 5690 ng/mL

Question: What about the concentration in plasma (Rat [20]; 2 min) of the same compound?
Answer: 704 ng/mL

Question: And the concentration in plasma (Rat [20]; 1 h)?
Answer: 7020 ng/mL

Question: With `Cc1cccc(Nc2cc(Cl)nc(SCC(=O)O)n2)c1C` as the compound, how does the concentration in plasma (Rat [21]; 0.5 h) read?
Answer: 5200 ng/mL

Question: And the concentration in plasma (Rat [21]; 3 h)?
Answer: 338 ng/mL

Question: How did the concentration in heart (Rat [22]) turn out when `O=C(O)CSCC(=O)O` [Thiodiglycolic Acid] was run?
Answer: 2840 ng/g

Question: What about the concentration in liver (Rat [23]) of the same compound?
Answer: 4800 ng/g

Question: What about the concentration in heart (Rat [24]) of the same compound?
Answer: 483 ng/g

Question: And the concentration in liver (Rat [25])?
Answer: 3470 ng/g

Question: And the concentration in heart (Rat [26])?
Answer: 393 ng/g

Question: What about the concentration in heart (Rat [27]) of the same compound?
Answer: 308 ng/g

Question: And the concentration in thymus (Rat [28])?
Answer: 10100 ng/g

Question: What about the concentration in heart (Rat [29]) of the same compound?
Answer: 1420 ng/g

Question: And the concentration in liver (Rat [30])?
Answer: 70700 ng/g

Question: And the concentration in liver (Rat [31])?
Answer: 60900 ng/g

Question: And the concentration in plasma (Rat [32])?
Answer: 38100 ng/mL

Question: What about the concentration in plasma (Rat [33]) of the same compound?
Answer: 7410 ng/mL

Question: How did the concentration in plasma (Rat [34]) turn out when `CCCCOC(=O)c1ccccc1C(=O)O` [Mono-n-butyl phthalate] was run?
Answer: 3210 ng/mL

Question: And the concentration in plasma (Rat [35])?
Answer: 21300 ng/mL

Question: And the concentration in plasma (Rat [36])?
Answer: 3050 ng/mL

Question: What about the concentration in plasma (Rat [37]) of the same compound?
Answer: 1030 ng/mL

Question: What about the concentration in plasma (Rat [38]) of the same compound?
Answer: 809 ng/mL

Question: What about the concentration in plasma (Rat [39]) of the same compound?
Answer: 31700 ng/mL
